# Target: ADRB2 (Homo sapiens, UniProt P07550)
# Conditions: 100 μM compound, 5 nM barcoded β-arr2, GRK2
# Protocol: A compound library could be screened in multi-well plates, and in each well, one compound was assayed with many barcoded GPCRs and a β-arrestin-2 (β-arr2) protein bearing a well-position-associated barcode (FIG. 3C). All the samples were pooled and deposited on one slide, and the interaction of a GPCR with a compound was detected by the increased GPCR polony co-localization with the corresponding β-arr2 polonies. […] The co-localization ratios were measured at 50 imaging positions on the array for statistical analysis.
# A GPCR-β-arr2 binding assay was performed by mixing a ligand with ˜1 nM GPCR-nanodisc complexes in an assay buffer A2 (20 mM HEPES, pH 7.5, 50 mM KOAc, 2 mM EDTA and 5 mM MgCl2), followed by addition of 10 nM GRK2 (Life Technologies), 0.1 mM ATP, 10 nM G protein β1γ2 subunits (KeraFAST) and 5 nM barcoded β-arr2 in a total volume of 25 μL. Compounds were assayed in parallel using a multi-well plate, and the reactions were incubated at 30° C. for 30 min. Similarly as described above, GPCR-β-arr2 complexes were crosslinked and both crosslinked and free GPCRs were purified from the reactions with the anti-HA magnetic beads. Proteins were pooled and analyzed on a single array.
# Chain of ADRB2 (P07550 whole entry): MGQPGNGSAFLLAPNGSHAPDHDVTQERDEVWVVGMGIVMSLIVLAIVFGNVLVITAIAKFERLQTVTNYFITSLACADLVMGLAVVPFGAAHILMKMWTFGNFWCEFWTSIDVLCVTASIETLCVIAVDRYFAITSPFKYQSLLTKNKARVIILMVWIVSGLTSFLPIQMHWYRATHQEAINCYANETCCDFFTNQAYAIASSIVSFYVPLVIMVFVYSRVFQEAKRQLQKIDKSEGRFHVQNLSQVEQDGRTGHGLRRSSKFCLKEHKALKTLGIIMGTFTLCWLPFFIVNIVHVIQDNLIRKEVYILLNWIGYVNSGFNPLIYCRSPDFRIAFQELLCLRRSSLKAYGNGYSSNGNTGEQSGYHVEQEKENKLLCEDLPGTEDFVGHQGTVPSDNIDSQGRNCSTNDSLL
compound,measurement,value
CC(C)NCC(O)COc1cccc2[nH]ccc12 (stereo not shown) [pindolol],agonist type identified by polony co-localization ratios,partial
